Values joined by “and” are separate entries in the source; they are usually repeats but may differ in a detail not shown here. Equal values may be shown once. Read-outs that look alike come from different tables or passages of the source.
Key:
Format in all cases: biochemical
hSULT1A3 = target: T1, hSULT1A3 (Homo sapiens, UniProt P0DMM9); test: Fluorescence-based microplate inhibition assay, hSULT1A3-catalyzed HN-241 4-O-sulfation; conditions: for activity at 10 µM: read-out: Residue activity (%) hSULT1A3
T1 construct: 6-histidine tag (N); TEV site (N); made in house; host or cells: Escherichia coli BL21 (DE3), pET29a(+)
T1 sequence (P0DMM9 whole entry): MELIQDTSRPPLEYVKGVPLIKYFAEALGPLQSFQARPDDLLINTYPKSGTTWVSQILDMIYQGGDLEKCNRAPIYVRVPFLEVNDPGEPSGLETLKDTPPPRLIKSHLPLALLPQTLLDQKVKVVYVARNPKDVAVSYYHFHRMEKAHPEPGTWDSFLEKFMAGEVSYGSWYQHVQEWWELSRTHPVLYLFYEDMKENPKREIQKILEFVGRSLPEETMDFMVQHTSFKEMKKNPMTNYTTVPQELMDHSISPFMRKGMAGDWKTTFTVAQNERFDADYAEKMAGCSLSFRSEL

hSULT1A1 = target: T2, hSULT1A1 (Homo sapiens, UniProt P50225); test: Fluorescence-based microplate inhibition assay, hSULT1A1-catalyzed HN-241 4-O-sulfation; conditions: for activity at 1 µM: read-out: Residue activity (%) hSULT1A1;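 as to all read-outs here: reaction started with 200 µM PAPS at 37 °C, fluorescence read continuously (Ex 350 nm, Em 450 nm), activity expressed relative to DMSO-only control without inhibitor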
T2 construct: 6-histidine tag (N); TEV site (N); made in house; host or cells: Escherichia coli BL21 (DE3), pET29a(+)
T2 sequence (P50225 whole entry): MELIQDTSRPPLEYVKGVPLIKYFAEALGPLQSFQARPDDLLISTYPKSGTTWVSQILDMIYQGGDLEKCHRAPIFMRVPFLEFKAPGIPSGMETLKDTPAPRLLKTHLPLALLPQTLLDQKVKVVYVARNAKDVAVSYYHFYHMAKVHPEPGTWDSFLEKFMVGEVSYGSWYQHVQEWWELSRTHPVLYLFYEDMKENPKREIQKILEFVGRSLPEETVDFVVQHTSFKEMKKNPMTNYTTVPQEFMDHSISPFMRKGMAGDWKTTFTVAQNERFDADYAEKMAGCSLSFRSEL

hSULT1A2 = target: T3, hSULT1A2 (Homo sapiens, UniProt P50226); test: Fluorescence-based microplate inhibition assay, hSULT1A2-catalyzed HN-241 4-O-sulfation; conditions: for remaining activity at 10 µM: 0.25 h, read-out: Residue activity (%) hSULT1A2
T3 construct: 6-histidine tag (N); TEV site (N); made in house; host or cells: Escherichia coli BL21 (DE3), pET29a(+)
T3 sequence (P50226 whole entry): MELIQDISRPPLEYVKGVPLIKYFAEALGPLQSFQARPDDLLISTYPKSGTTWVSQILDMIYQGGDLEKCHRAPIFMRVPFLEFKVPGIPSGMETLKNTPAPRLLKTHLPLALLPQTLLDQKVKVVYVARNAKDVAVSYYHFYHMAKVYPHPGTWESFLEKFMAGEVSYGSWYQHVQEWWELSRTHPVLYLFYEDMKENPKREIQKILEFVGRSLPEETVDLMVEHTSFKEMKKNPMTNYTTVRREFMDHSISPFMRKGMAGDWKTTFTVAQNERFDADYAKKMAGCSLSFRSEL

[1] = test compound 10 μM, HN-241 10 μM, 15 min
[2] = test compound 1 μM, HN-241 1 μM, 15 min
[3] = test compound 10 μM, HN-241 5 μM, 15 min

Compound	Residue activity (%) hSULT1A3 (hSULT1A3; [1])	Residue activity (%) hSULT1A1 (hSULT1A1; [2])	Residue activity (%) hSULT1A2 (hSULT1A2; [3])	activity at 10 µM (hSULT1A3; [1])	activity at 1 µM (hSULT1A1; [2])	remaining activity at 10 µM (hSULT1A2; [3])	further results
Myricitrin	110.49%	96.68%	84.45%				
Cc1cc(O)c2c(c1)C(=O)c1cccc(O)c1C2=O [Chrysophanic acid]				99.3%	3.52%	45.4%	
O=c1c(O)c(-c2cc(O)c(O)c(O)c2)oc2cc(O)cc(O)c12 [Myricetin]				39.8%	0.08%	4.43%	
C[C@]12CC[C@H](O)C[C@H]1CC[C@@H]1[C@@H]2CC[C@]2(C)[C@@H](c3ccc(=O)oc3)C[C@H]3O[C@]132 [Resibufogenin]							activity at 10 µM (hSULT1A3): 113%; activity at 1 µM (hSULT1A1): 127%; remaining activity at 10 µM (hSULT1A2): 99.2%
C[C@]12CC[C@H](O)C[C@H]1CC[C@@H]1[C@@H]2CC[C@]2(C)[C@@H](c3ccc(=O)oc3)CC[C@]12O [Bufalin]							activity at 10 µM (hSULT1A3): 124%; activity at 1 µM (hSULT1A1): 103%; remaining activity at 10 µM (hSULT1A2): 106%
COc1ccc(-c2oc3c(CC=C(C)C)c(O[C@@H]4O[C@H](CO)[C@@H](O)[C@H](O)[C@H]4O)cc(O)c3c(=O)c2O[C@@H]2O[C@@H](C)[C@H](O)[C@@H](O)[C@H]2O[C@@H]2O[C@@H](C)[C@H](O)[C@@H](O)[C@H]2O)cc1 [Epimedin C]	107.48%	108.62%	95.77%				
O=C(O[C@@H]1[C@@H](O)[C@H](Oc2cc(O)c(C(=O)CCc3ccccc3)c(O)c2)O[C@@H]2COC(=O)c3cc(O)c(O)c(O)c3-c3c(cc(O)c(O)c3O)C(=O)O[C@@H]12)c1cc(O)c(O)c(O)c1 [Thonningianin A]				17.6%	12%	3.29%	
C=C(CCC=C(C)C)[C@H]1CC[C@]2(C)[C@@H]1[C@H](O)C[C@@H]1[C@@]3(C)CC[C@H](O[C@@H]4O[C@H](CO)[C@@H](O)[C@H](O)[C@H]4O)C(C)(C)[C@@H]3CC[C@]12C [Ginsenoside Rk2]	94.83%	97.02%	106.88%				
C=C(C)[C@@H]1CC[C@]2(C(=O)O)CC[C@]3(C)[C@H](CC[C@@H]4[C@@]5(C)CC[C@@H](O)C(C)(C)[C@@H]5CC[C@]43C)[C@@H]12 [Epibetulinic acid]				121%	106%	111%	
CC(C)=CCC[C@](C)(O)[C@H]1CC[C@]2(C)[C@@H]1[C@H](O)C[C@@H]1[C@@]3(C)CC[C@H](O)C(C)(C)[C@@H]3[C@@H](O[C@@H]3O[C@H](CO)[C@@H](O)[C@H](O)[C@H]3O[C@@H]3O[C@H](CO)[C@@H](O)[C@H](O)[C@H]3O)C[C@]12C [Ginsenoside Rf]				104%	102%	104%	
CC(C)=CCC[C@](C)(O)[C@H]1CC[C@]2(C)[C@@H]1[C@H](O)C[C@@H]1[C@@]3(C)CC[C@H](O[C@@H]4O[C@H](CO)[C@@H](O)[C@H](O)[C@H]4O)C(C)(C)[C@@H]3CC[C@]12C [20(S)-Ginsenoside Rh2]	105.44%	85.94%	110.74%				
Cc1c(O)c(C)c2c(c1O)C(=O)[C@H](Cc1ccc3c(c1)OCO3)CO2 [Methylophiopogonanone A]	79.90%	28.87%	0.52%				
COc1cc2c(=O)c(-c3ccc(O)cc3)coc2cc1O[C@@H]1O[C@H](CO)[C@@H](O)[C@H](O)[C@H]1O [Glycitin]	114.83%	98.37%	97.40%				
O=C1C=CC(=O)c2cc3ccccc3cc21 [1,4-Anthracenedione]	94.23%	29.15%	1.06%				
COc1ccc(-c2oc3c(CC=C(C)C)c(O[C@@H]4O[C@H](CO)[C@@H](O)[C@H](O)[C@H]4O)cc(O)c3c(=O)c2O[C@@H]2O[C@@H](C)[C@H](O)[C@@H](O)[C@H]2O)cc1 [Icariin]				105%	85.5%	85.1%	
CC(C)=CCC[C@](C)(O)[C@H]1CC[C@]2(C)[C@@H]1[C@H](O)C[C@@H]1[C@@]3(C)CC[C@H](O)C(C)(C)[C@@H]3CC[C@]12C [(20S)-Protopanaxdiol]	81.62%	99.75%	95.73%				

Compound	Residue activity (%) hSULT1A3 (hSULT1A3; [1])	Residue activity (%) hSULT1A1 (hSULT1A1; [2])	Residue activity (%) hSULT1A2 (hSULT1A2; [3])	activity at 10 µM (hSULT1A3; [1])	activity at 1 µM (hSULT1A1; [2])	remaining activity at 10 µM (hSULT1A2; [3])	further results
Gomisin A	122.78%	129.03%	97.44%				
COc1cc(O)cc(O)c1C(=O)/C=C/c1ccccc1 [Cardamonin]	120.65% and 88.76%	63.24% and 71.38%	34.41% and 31.76%				
CC1(C)[C@@H](O[C@H]2O[C@H](C(=O)O)[C@@H](O)[C@H](O)[C@H]2O[C@@H]2O[C@H](C(=O)O)[C@@H](O)[C@H](O)[C@H]2O)CC[C@]2(C)[C@H]3C(=O)C=C4[C@@H]5C[C@@](C)(C(=O)O)CC[C@]5(C)CC[C@@]4(C)[C@]3(C)CC[C@@H]12 [Glycyrrhizic acid]				121%	106%	112%	
COc1cc2c(c(O)c1OC)C(=O)c1c(cc(C)c(O)c1OC)C2=O [1,7-Dihydroxy-2,3,8-trimethoxy-6-methylanthracene-9,10-dione]	61.63%	0.00%	0.20%				
CC(C)=CC[C@@H](O)C1=CC(=O)c2c(O)ccc(O)c2C1=O [Shikonin]				61%	64.5%	18.6%	
COc1cc(OC)c(CCC(=O)c2ccc(O)cc2)c(OC)c1 [Loureirin B]	71.91%	5.84%	6.16%				
O=C1CCC[C@@H]2[C@H]3CCC[N@+]4([O-])CCC[C@@H](CN12)[C@@H]34 [Ammothamnine]	100.34%	99.18%	96.56%				
C[C@H]1C(=O)O[C@@H]2CCN3CC=C(COC(=O)[C@](C)(O)[C@]1(C)O)[C@H]23 [Crotaline]	122.18%	128.03%	97.30%				
Cc1c2[n+](cc3cc4c(cc13)OCO4)CCc1cc3c(cc1-2)OCO3 [Worenine]	125.56%	101.91%	92.89%				
C[C@H](CCC(=O)O)[C@H]1CC[C@H]2[C@@H]3[C@H](O)C[C@@H]4C[C@H](O)CC[C@]4(C)[C@H]3CC[C@]12C [Chenodeoxycholic acid]				129%	96.5%	98.2%	
O=c1c(O)c(-c2ccc(O)c(O)c2)oc2cc(O)cc(O)c12 [Quercetin, reference compound]				39.9%	0%	0.1%	
CC(C)=CCC[C@](C)(O)[C@H]1CC[C@]2(C)[C@@H]1[C@H](O)C[C@@H]1[C@@]3(C)CC[C@H](O)C(C)(C)[C@@H]3[C@@H](O[C@@H]3O[C@H](CO)[C@@H](O)[C@H](O)[C@H]3O[C@@H]3OC[C@@H](O)[C@H](O)[C@H]3O)C[C@]12C [Notoginsenoside R2]		105.59%	108.58%				
O=c1cc(-c2ccccc2)oc2cc(O)c(O)c(O)c12 [Baicalein]							IC50 (hSULT1A3; hSULT1A3-catalyzed HN-241 4-O-sulfation): 6.32 ± 0.195 µM; IC50 (hSULT1A1; hSULT1A1-catalyzed HN-241 4-O-sulfation): 0.0452 ± 0.00391 µM
COc1ccc(/C=C/C(=O)c2ccccc2)cc1 [4-Methoxychalcone]		78.44%	75.95%				
COC[C@]12CN(C)[C@@H]3[C@@H]4[C@H](OC)[C@H]1[C@@]3([C@@H](OC)C[C@H]2O)[C@@H]1C[C@@]2(O)[C@H](OC(=O)c3ccccc3)[C@@H]1[C@]4(OC(C)=O)[C@@H](O)[C@@H]2OC [Mesaconitine]	110.31%		114.51%				
